Experimental data published in patent US11447449B2, “Inhibitors of indoleamine 2,3-dioxygenase and methods of their use” (BRISTOL-MYERS SQUIBB COMPANY, priority 2018, dated 2022).
≈ marks a conversion by molar mass, not a printed value. Read-outs that look alike come from different tables or passages of the source.

Key:
[1] = Thermodynamic equilibrium aqueous solubility; format: physicochemical; details: thermodynamic from solid, 18-24 hours at room temperature, read-out: Solubility (μg/mL) pH 1.0, 4.0, 6.5, 7.4 buffers
Description: Thermodynamic Equilibrium Aqueous Solubility Evaluation
The calibration standard is prepared by accurately weighing 0.3-0.7 mg of sample into 5 ml volumetric flask and then dissolved in pure methanol. If the standard material is not fully soluble in methanol, other solvents such as DMSO or mixed solvent systems can used.
The calibration standard is typically prepared fresh, before the start of the assay. Note the calibration standard must be fully dissolved. A single point calibration curve is used to determine the concentration of the final saturated solution.
The saturated solution is prepared by adding 1.0 ml of the appropriate aqueous solvent to the remaining portion/portions of material (˜1 mg/l ml) into the 1 dram submission vial. The solution is sonicated and vortexed for ˜30 seconds. The sample solution is placed on an orbiter that continually agitates the sample solutions for 18-24 hours at room temperature. The saturated solution is then transferred to a 1.5 ml eppendorf tube and centrifuged for ˜2 min. at 10000 rpms. The supernatant from the saturated solution is filtered, using a 0.45 μm PTFE syringe filter, into a 1.5 mL glass HPLC.
The standards and sample are analyzed by HPLC using either UV/Vis diode array or variable wavelength detection. Typical quantitation wavelengths are 210 or 254 nm; detection wavelength can be individually customized to optimize sensitivity. In addition to UV detection, mass spectrometry detection is recommended in order to confirm the Mass of the peak of interest.
Dilutions of saturated aqueous test solutions are performed if HPLC-UV peak is beyond the linear portion of the standard calibration curve. Typical dilutions include 100 μl/900 μl (×10) or 500 μl/500 μl (2×), as required.
HPLC grade solvents are employed.

[2] = biological target: T1, indoleamine 2,3-dioxygenase (IDO) (Homo sapiens, UniProt P14902); assay: HeLa cell-based indoleamine 2,3-dioxygenase (IDO) assay, kynurenine production; details: HeLa cells, IFNγ 25 ng/mL, 48 hour incubation
T1 construct: endogenous in cells; host or cells: HeLa (ATCC CCL-2), stimulated with IFN-gamma at 25 ng/mL
T1 sequence (P14902 whole entry): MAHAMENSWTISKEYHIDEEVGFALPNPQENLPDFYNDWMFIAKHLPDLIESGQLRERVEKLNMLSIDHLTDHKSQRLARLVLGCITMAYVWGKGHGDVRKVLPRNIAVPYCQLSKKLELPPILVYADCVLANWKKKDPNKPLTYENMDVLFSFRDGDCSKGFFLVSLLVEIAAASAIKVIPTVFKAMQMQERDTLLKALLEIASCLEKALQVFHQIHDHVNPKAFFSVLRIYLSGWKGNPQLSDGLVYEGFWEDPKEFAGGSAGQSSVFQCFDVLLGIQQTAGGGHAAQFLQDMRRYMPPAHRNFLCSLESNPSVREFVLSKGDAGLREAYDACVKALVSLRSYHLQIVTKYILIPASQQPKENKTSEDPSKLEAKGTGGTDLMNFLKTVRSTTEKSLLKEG
Description: Assessment of inhibitor activity in HeLa cell-based indoleamine 2,3-dioxygenase (IDO) assay:
HeLa (ATCC® CCL-2) cells were obtained from the ATCC® and cultured in Dulbecco's Modified Eagle Medium supplemented with 4.5 g/L glucose, […] (#10-013-CV, Corning), 2 mM L-alanyl-L-glutamine dipeptide (#35050-061, Gibco), 100U/mL penicillin, 100 μg/mL streptomycin (#SV30010, HyClone) and 10% fetal bovine serum (#SH30071.03 HyClone). Cells were maintained in a humidified incubator at 37° C. in 5% CO2.
IDO activity was assessed as a function of kynurenine production as follows: HeLa cells were seeded in a 96-well culture plate at a density of 5,000 cells/well and allowed to equilibrate overnight. After 24 hours, the media was aspirated and replaced with media containing IFNγ (#285-IF/CF, R&D Systems) at a final concentration of 25 ng/mL. A serial dilution of each test compound was added to the cells in a total volume of 200 μL of culture medium. […] Kynurenine concentrations were determined by measuring absorbance at 480 nm and calibrating against an L-kynurenine (#K8625, Sigma-Aldrich) standard curve using a SPECTRAMAX® M2e microplate reader (Molecular Devices). The percentage activity at each inhibitor concentration was determined and IC50 values assessed using nonlinear regression.

human IDO1 = biological target: T2, human IDO1 (Homo sapiens, UniProt P14902); assay: Human IDO1/HEK293 cell IDO inhibition assay; format: cell-based; details: human IDO1/HEK293 cells, 20 hours; read-out: IDO1 HEK Human IC50
T2 construct: expressed in transfected cells
T2 sequence (P14902 whole entry): as above
Description: HEK293 cells were transfected with a pCDNA-based mammalian expression vector harboring human IDO1 cDNA (NM 002164.2) by electroporation. They were cultured in medium (DMEM with 10% FBS) containing 1 mg/ml G418 for two weeks. Clones of HEK293 cells that stably expressed human IDO1 protein were selected and expanded for IDO inhibition assay.
The human IDO1/HEK293 cells were seeded at 10,000 cells per 50 μL per well with RPMI/phenol red free media contains 10% FBS in a 384-well black wall clear bottom tissue culture plate (Matrix Technologies LLC) 100 nL of certain concentration of compound was then added to each well using ECHO liquid handling systems. The cells were incubated for 20 hours in 37° C. incubator with 5% CO2.
The compound treatments were stopped by adding trichloroacetic acid (Sigma-Aldrich) to a final concentration at 0.2%. The cell plate was further incubated at 50° C. for 30 minute. The equal volume supernatant (20 μL) and 0.2% (w/v) Ehrlich reagent (4-dimethylaminobenzaldehyde, Sigma-Aldrich) in glacial acetic acid were mixed in a new clear bottom 384-well plate. This plate was then incubated at room temperature for 30 minute. The absorbance at 490 nm was measured on Envision plate reader. […]

[3] = aqueous buffer pH 1.0, simulated gastric fluid, pH 1.0 buffer
[4] = aqueous buffer pH 4.0, aqueous buffer, pH 4.0 buffer
[5] = aqueous buffer pH 6.5, aqueous buffer, pH 6.5 buffer
[6] = aqueous buffer pH 7.4, aqueous buffer, pH 7.4 buffer

| SMILES | solubility [1, 3] [µg/mL] | solubility [1, 4] [µg/mL] | solubility [1, 5] [µg/mL] | solubility [1, 6] [µg/mL] | IC50 [2] [nM] | IC50 (human IDO1) [nM] |
| --- | --- | --- | --- | --- | --- | --- |
| CCOP(=O)(O)OCOC(=O)C[C@H](CC)c1ccc(N(CC(C)C)CC(C)C)c(NC(=O)Nc2ccc(C)cc2)c1 [Example 9, (3S)-((Ethoxy(hydroxy)phosphoryl)oxy)methyl 3-(4-(diisobutylamino)-3-(3-(p-tolyl)ureido)phenyl)pentanoate] | 215 (≈ 363 µM) | > 1100 | > 2000 | > 2000 |  |  |
| CC[C@@H](CC(=O)OCOC(=O)OCC(C)OP(=O)(O)O)c1ccc(N(CC(C)C)CC(C)C)c(NC(=O)Nc2ccc(C)cc2)c1 (stereo partly drawn) [Example 22, (3S)-(((2-(Phosphonooxy)propoxy)carbonyl)oxy)methyl 3-(4-(diisobutylamino)-3-(3-(p-tolyl)ureido)phenyl)pentanoate] | 15 (≈ 22.5 µM) | > 500 | 22 (≈ 33 µM) | 16 (≈ 24 µM) |  |  |
| CC[C@@H](CC(=O)OC(C)OC(=O)N(C)c1ncccc1COP(=O)(O)O)c1ccc(N(CC(C)C)CC(C)C)c(NC(=O)Nc2ccc(C)cc2)c1 (stereo partly drawn) [Example 20, (3S)-1-((Methyl(3-((phosphonooxy)methyl)pyridin-2-yl)carbamoyl)oxy)ethyl 3-(4-(diisobutylamino)-3-(3-(p-tolyl)ureido)phenyl)pentanoate] | 35 (≈ 47.2 µM) | > 500 | > 500 | > 500 |  |  |
| CC[C@@H](CC(=O)O)c1ccc(N(CC(C)C)CC(C)C)c(NC(=O)Nc2ccc(C)cc2)c1 [Example 1E, (S)-3-(4-(diisobutylamino)-3-(3-(p-tolyl)ureido)phenyl)pentanoic Acid] | 630 (≈ 1390 µM) |  |  | 1 (≈ 2.2 µM) | 4.1 | 3.1 |
| CC[C@@H](CC(=O)OCOC(=O)CCCOP(=O)(O)O)c1ccc(N(CC(C)C)CC(C)C)c(NC(=O)Nc2ccc(C)cc2)c1 [Example 4, (S)-((4-(Phosphonooxy)butanoyl)oxy)methyl 3-(4-(diisobutylamino)-3-(3-(p-tolyl)ureido) Phenyl) Pentanoate] | 24 (≈ 36.9 µM) | > 500 | > 500 | 158 (≈ 243 µM) |  |  |
